Legend:
[1] = target: T1, Cytochrome P450 11B1, mitochondrial (Homo sapiens, UniProt P15538); experiment: Inhibition of human CYP11B1 expressed in hamster V79MZh cells using [1,2-3H]-11-deoxycorticosterone as substrate
T1 sequence (P15538 whole entry): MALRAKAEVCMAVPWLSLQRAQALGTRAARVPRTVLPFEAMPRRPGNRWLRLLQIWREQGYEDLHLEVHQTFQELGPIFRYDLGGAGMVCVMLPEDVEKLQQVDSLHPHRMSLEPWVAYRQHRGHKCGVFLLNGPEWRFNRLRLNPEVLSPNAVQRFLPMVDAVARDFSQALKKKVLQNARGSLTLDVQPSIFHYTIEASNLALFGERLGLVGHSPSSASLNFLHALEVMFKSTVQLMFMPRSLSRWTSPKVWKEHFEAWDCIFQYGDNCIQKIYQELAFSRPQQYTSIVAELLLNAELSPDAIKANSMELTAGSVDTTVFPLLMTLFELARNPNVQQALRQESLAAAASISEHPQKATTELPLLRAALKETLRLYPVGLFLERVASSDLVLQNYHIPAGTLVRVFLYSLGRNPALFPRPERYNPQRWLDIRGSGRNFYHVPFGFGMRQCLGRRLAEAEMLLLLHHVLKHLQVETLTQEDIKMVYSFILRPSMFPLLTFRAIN

[2] = target: T2, Cytochrome P450 11B2, mitochondrial (Homo sapiens, UniProt P19099); experiment: Inhibition of human CYP11B2 expressed in hamster V79MZh cells using [1,2-3H]-11-deoxycorticosterone as substrate
T2 sequence (P19099 whole entry): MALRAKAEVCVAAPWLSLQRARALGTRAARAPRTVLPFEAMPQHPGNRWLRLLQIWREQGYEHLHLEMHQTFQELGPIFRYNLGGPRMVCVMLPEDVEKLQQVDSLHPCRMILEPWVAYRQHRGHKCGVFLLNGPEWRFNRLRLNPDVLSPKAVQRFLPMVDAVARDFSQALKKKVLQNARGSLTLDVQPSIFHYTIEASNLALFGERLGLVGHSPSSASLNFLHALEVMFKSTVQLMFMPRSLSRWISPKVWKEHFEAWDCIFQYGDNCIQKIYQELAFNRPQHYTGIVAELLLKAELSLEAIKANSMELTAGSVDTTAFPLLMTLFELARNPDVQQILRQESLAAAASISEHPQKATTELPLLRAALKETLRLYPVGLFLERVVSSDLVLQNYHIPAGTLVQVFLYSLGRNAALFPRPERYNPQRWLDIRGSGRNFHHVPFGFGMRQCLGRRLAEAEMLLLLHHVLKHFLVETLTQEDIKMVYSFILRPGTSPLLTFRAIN

CYP19 (aromatase) = target: T3, CYP19 (aromatase) (Homo sapiens, UniProt P11511); experiment: Inhibition of human placental CYP19 using [1beta-3H]androstenedione as substrate at 2 uM by 3H2O-method; conditions: human placental CYP19, probe [1beta-3H]androstenedione
T3 sequence (P11511 whole entry): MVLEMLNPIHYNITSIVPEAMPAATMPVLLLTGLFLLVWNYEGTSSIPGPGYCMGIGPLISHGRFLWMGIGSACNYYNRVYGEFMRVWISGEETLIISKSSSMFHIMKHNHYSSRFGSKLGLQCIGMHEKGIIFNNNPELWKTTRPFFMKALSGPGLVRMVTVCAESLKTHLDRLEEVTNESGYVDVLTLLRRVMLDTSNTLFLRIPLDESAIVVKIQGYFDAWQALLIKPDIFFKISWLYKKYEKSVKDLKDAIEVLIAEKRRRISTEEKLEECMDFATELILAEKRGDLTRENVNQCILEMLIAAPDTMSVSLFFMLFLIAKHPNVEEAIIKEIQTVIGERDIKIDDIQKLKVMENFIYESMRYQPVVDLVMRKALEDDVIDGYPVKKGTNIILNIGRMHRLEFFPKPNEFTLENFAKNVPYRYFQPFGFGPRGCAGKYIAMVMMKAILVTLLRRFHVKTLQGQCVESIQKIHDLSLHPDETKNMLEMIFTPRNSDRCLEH

CYP17 = target: T4, CYP17 (Homo sapiens, UniProt P05093); experiment: Inhibition of human CYP17 expressed in Escherichia coli using progesterone as substrate at 2 uM; conditions: probe progesterone
T4 sequence (P05093 whole entry): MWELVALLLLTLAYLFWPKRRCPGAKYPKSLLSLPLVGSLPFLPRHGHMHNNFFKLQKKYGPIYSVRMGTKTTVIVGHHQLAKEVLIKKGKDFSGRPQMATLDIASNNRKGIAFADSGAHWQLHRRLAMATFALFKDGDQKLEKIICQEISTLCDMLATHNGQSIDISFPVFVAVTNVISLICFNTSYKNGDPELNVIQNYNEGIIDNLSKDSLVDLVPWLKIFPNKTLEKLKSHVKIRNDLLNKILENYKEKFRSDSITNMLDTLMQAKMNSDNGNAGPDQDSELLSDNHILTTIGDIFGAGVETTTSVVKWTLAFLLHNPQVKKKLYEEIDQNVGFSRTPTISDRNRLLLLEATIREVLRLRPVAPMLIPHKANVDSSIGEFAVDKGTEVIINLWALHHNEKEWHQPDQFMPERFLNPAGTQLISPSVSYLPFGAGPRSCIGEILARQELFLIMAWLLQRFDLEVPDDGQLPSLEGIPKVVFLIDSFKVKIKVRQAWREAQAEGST

V79MZh [3] = experiment: Selectivity ratio of IC50 for human placental CYP19 to IC50 for human CYP11B1 expressed in hamster V79MZh cells; assay type: cell-based
V79MZh [4] = experiment: Selectivity ratio of IC50 for human CYP17 expressed in Escherichia coli to IC50 for human CYP11B1 expressed in hamster V79MZh cells
[5] = Half life in human liver S9 fraction by LC-MS/MS analysis; assay type: ADME, subcellular
Salmonella typhimurium [6] = experiment: Mutagenicity in Salmonella typhimurium TA7001/7002/7003/7004/7005/7006 up to 100 uM by Ames II assay; assay type: toxicity, organism-based; conditions: salmonella enterica subsp. enterica serovar typhimurium
Salmonella typhimurium [7] = experiment: Mutagenicity in Salmonella typhimurium TA98 up to 100 uM by Ames II assay; assay type: toxicity, organism-based; conditions: salmonella enterica subsp. enterica serovar typhimurium
[8] = Half life in human plasma by LC-MS/MS analysis; assay type: ADME, cell-free
Salmonella typhimurium [9] = experiment: Mutagenicity in Salmonella typhimurium TA98 up to 100 uM by Ames II assay in presence of S9 fraction; assay type: toxicity, organism-based; conditions: salmonella enterica subsp. enterica serovar typhimurium
Salmonella typhimurium [10] = experiment: Mutagenicity in Salmonella typhimurium TA7001/7002/7003/7004/7005/7006 up to 100 uM by Ames II assay in presence of S9 fraction; assay type: toxicity, organism-based; conditions: salmonella enterica subsp. enterica serovar typhimurium

Row | SMILES | IC50 [1] | IC50 [2] | also measured
1 | O=S(=O)(C1CCCCC1)N1CCCc2cc(-c3cccnc3)ccc21 | 1170 nM | – | –
2 | COc1cccc(S(=O)(=O)Nc2ccc(-c3cccnc3)cc2)c1 | 188 nM | 850 nM | –
3 | COc1cccc(S(=O)(=O)N(Cc2ccccc2)c2ccc(-c3cccnc3)cc2)c1 | 2000 nM | – | –
4 | Cc1ccc(S(=O)(=O)N2CCCc3cc(-c4cccnc4)ccc32)cc1 | 278 nM | 555 nM | –
5 | O=S(=O)(c1ccc(Cl)cc1)N1CCCc2cc(-c3cccnc3)ccc21 | 137 nM | 469 nM | –
6 | N#Cc1ccc(S(=O)(=O)N2CCCc3cc(-c4cccnc4)ccc32)cc1 | 114 nM | 557 nM | –
7 | O=S(=O)(c1ccc2ccccc2c1)N1CCCc2cc(-c3cccnc3)ccc21 | 663 nM | – | –
8 | COc1cccc(S(=O)(=O)N2CCCc3cc(-c4ccncc4)ccc32)c1 | > 5000 nM | – | –
9 | COc1cccc(S(=O)(=O)N2CCc3cc(-c4cccnc4)cnc32)c1 | 587 nM | – | –
10 | COc1cccc(S(=O)(=O)N2CCc3cc(-c4ccncc4)cnc32)c1 | 1750 nM | – | –
11 | COc1ccc(S(=O)(=O)N2CCCc3cc(-c4cccnc4)ccc32)cc1 | 334 nM | 519 nM | –
12 | COc1cccc(S(=O)(=O)N2CCc3cc(-c4cccnc4)ccc32)c1 | 111 nM | 251 nM | –
13 | O=S(=O)(c1cccc(C(F)(F)F)c1)N1CCCc2cc(-c3cccnc3)ccc21 | 309 nM | 607 nM | –
14 | O=S(=O)(c1cccc(F)c1)N1CCc2cc(-c3cccnc3)ccc21 | 327 nM | 850 nM | –
15 | CC(C)(C(=O)c1cccnc1)c1cccnc1 [METYRAPONE] | – | – | half-life [5]: 49 min
16 | O=S(=O)(c1ccc(OC(F)(F)F)cc1)N1CCCc2cc(-c3cccnc3)ccc21 | 929 nM | – | –
17 | O=S(=O)(c1cccc(OC(F)(F)F)c1)N1CCCc2cc(-c3cccnc3)ccc21 | 382 nM | 322 nM | –
18 | O=S(=O)(c1ccc(C(F)(F)F)cc1)N1CCCc2cc(-c3cccnc3)ccc21 | 1220 nM | – | –

Continued by falling IC50 [1], values first:

Row | IC50 [1] | IC50 [2] | SMILES | also measured
19 | 71 nM | 196 nM | O=S(=O)(c1cccc(F)c1)N1CCCc2cc(-c3cccnc3)ccc21 | –
20 | 68 nM | 239 nM | COc1cccc(S(=O)(=O)N(C)c2ccc(-c3cccnc3)cc2)c1 | –
21 | 65 nM | 429 nM | N#Cc1cccc(S(=O)(=O)N2CCCc3cc(-c4cccnc4)ccc32)c1 | –
22 | 65 nM | 295 nM | O=S(=O)(c1ccccc1)N1CCCc2cc(-c3cccnc3)ccc21 | –
23 | 62 nM | 344 nM | O=S(=O)(c1cccc(Cl)c1)N1CCCc2cc(-c3cccnc3)ccc21 | –
24 | 60 nM | 259 nM | O=S(=O)(c1cccs1)N1CCCc2cc(-c3cccnc3)ccc21 | –
25 | 49 nM | 260 nM | O=S(=O)(c1ccc(F)cc1)N1CCCc2cc(-c3cccnc3)ccc21 | –
26 | 28 nM | 85 nM | COc1cccc(S(=O)(=O)N2CCCc3cc(-c4cccnc4)ccc32)c1 | inhibition at 2 µM (CYP19 (aromatase)): 32%; inhibition at 2 µM (CYP17): 11%; Ratio IC50 (V79MZh [3]): > 60; Ratio IC50 (V79MZh [4]): > 60
27 | 26 nM | 205 nM | Cc1cccc(S(=O)(=O)N2CCCc3cc(-c4cccnc4)ccc32)c1 | inhibition at 2 µM (CYP19 (aromatase)): 29%; inhibition at 2 µM (CYP17): 9%; Ratio IC50 (V79MZh [3]): > 60; Ratio IC50 (V79MZh [4]): > 60
28 | 6 nM | 5 nM | COc1cccc(S(=O)(=O)N2CCCc3cc(Cc4ccncc4)ccc32)c1 | inhibition at 2 µM (CYP19 (aromatase)): 88%; inhibition at 2 µM (CYP17): 14%; Ratio IC50 (V79MZh [3]): > 60; Ratio IC50 (V79MZh [4]): > 60
29 | 5 nM | 8 nM | COc1cccc(S(=O)(=O)N2CCCc3cc(Cc4cccnc4)ccc32)c1 | Activity (Salmonella typhimurium [6]): Non-toxic; half-life [5]: 16 min; Activity (Salmonella typhimurium [7]): Non-toxic; inhibition at 2 µM (CYP19 (aromatase)): 26%; half-life [8]: > 150 min; Activity (Salmonella typhimurium [9]): Non-toxic; inhibition at 2 µM (CYP17): 9%; Activity (Salmonella typhimurium [10]): Non-toxic; Ratio IC50 (V79MZh [3]): > 60; Ratio IC50 (V79MZh [4]): > 60
